Assays:
WEE1 = molecular target: T1, WEE1 (Homo sapiens, UniProt P30291+Q96SW2); assay: Western-blot assay of substrate protein degradation in hPBMCs, WEE1; assay type: cell-based; conditions: 24 hours of compound treatment
T1 construct: endogenous in cells; host or cells: hPBMCs (Milecell Biotechnologies)

IKZF1 = molecular target: T2, IKZF1 (Homo sapiens, UniProt Q13422+Q96SW2); assay: Western-blot assay of substrate protein degradation in hPBMCs, IKZF1; assay type: cell-based; conditions: 24 hours of compound treatment
T2 construct: endogenous in cells; host or cells: hPBMCs (Milecell Biotechnologies)
T2 sequence (Q13422 whole entry): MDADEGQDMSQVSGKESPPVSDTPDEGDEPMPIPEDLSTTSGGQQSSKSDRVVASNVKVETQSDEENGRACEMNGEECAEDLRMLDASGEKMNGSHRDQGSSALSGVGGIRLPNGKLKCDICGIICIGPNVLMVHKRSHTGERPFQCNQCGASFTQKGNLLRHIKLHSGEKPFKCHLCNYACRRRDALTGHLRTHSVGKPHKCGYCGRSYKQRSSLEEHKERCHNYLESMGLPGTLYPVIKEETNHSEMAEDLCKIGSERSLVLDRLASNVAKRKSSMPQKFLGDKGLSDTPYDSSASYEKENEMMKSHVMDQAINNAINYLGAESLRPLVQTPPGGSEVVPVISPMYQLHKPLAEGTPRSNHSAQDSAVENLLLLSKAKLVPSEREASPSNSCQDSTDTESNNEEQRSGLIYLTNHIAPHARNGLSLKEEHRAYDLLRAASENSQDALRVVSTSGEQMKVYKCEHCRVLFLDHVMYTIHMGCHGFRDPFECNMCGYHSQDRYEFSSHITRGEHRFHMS
T2 sequence (Q96SW2 whole entry): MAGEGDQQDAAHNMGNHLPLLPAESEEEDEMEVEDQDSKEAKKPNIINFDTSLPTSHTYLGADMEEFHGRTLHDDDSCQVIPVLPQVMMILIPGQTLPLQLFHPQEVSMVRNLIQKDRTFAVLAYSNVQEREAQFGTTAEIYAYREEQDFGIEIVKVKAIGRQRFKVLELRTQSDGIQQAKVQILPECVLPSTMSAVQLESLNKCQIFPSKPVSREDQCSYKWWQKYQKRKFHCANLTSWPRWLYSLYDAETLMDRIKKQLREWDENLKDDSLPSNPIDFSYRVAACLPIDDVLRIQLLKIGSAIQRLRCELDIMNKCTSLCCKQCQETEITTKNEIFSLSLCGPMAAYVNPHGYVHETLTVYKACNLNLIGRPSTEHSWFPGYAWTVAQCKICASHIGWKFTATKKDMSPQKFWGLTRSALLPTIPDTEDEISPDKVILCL
T2 sequence (Q16531 whole entry partner): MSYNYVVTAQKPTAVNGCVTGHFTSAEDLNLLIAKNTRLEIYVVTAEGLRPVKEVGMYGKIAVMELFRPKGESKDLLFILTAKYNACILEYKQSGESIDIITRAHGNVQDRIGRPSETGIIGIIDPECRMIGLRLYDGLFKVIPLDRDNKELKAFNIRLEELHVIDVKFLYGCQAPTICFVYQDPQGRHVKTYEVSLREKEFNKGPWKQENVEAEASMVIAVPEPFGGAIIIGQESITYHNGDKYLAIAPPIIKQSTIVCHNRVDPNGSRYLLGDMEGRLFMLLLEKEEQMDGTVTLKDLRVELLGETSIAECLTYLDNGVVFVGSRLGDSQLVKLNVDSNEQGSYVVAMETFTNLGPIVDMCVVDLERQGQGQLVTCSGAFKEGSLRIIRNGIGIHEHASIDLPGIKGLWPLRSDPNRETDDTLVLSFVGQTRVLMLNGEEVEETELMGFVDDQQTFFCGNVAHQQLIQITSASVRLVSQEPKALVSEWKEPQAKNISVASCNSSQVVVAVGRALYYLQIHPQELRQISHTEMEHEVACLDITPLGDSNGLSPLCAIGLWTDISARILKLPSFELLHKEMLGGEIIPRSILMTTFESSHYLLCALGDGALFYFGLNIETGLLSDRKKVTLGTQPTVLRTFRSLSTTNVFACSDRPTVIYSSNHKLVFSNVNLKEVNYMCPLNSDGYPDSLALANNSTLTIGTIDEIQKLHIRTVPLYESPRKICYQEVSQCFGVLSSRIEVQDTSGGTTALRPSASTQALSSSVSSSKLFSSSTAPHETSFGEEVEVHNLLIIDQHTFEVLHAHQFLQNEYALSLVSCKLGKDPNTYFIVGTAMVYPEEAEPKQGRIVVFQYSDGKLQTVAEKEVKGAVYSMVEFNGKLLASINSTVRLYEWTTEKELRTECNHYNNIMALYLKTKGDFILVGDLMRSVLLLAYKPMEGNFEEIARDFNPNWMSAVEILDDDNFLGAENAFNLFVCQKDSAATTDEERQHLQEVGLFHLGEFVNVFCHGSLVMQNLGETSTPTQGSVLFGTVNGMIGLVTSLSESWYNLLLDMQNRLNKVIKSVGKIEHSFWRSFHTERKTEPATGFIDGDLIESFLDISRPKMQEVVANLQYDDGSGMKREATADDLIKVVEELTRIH

IKZF2 = molecular target: T3, IKZF2 (Homo sapiens, UniProt Q96SW2+Q9UKS7); assay: Western-blot assay of substrate protein degradation in hPBMCs, IKZF2; assay type: cell-based; conditions: 24 hours of compound treatment
T3 construct: endogenous in cells; host or cells: hPBMCs (Milecell Biotechnologies)
T3 sequence (Q9UKS7 whole entry): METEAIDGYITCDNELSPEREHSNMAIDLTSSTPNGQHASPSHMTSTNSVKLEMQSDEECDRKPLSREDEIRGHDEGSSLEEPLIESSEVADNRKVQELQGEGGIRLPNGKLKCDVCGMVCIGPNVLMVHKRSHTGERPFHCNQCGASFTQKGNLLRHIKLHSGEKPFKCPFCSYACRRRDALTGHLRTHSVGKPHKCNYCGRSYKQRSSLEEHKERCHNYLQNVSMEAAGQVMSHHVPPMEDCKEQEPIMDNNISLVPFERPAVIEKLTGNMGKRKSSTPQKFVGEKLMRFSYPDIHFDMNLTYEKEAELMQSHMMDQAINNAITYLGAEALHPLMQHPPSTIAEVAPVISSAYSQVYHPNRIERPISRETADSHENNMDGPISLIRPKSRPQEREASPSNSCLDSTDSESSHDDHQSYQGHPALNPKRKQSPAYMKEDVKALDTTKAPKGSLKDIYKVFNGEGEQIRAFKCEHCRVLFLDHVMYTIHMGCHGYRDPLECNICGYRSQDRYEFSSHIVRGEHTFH
T3 sequence (Q96SW2 whole entry): as the sequence (Q96SW2 whole entry) above
T3 sequence (Q16531 whole entry partner): as the sequence (Q16531 whole entry partner) above

IKZF3 = molecular target: T4, IKZF3 (Homo sapiens, UniProt Q96SW2+Q9UKT9); assay: Western-blot assay of substrate protein degradation in hPBMCs, IKZF3; assay type: cell-based; conditions: 24 hours of compound treatment
T4 construct: endogenous in cells; host or cells: hPBMCs (Milecell Biotechnologies)
T4 sequence (Q9UKT9 whole entry): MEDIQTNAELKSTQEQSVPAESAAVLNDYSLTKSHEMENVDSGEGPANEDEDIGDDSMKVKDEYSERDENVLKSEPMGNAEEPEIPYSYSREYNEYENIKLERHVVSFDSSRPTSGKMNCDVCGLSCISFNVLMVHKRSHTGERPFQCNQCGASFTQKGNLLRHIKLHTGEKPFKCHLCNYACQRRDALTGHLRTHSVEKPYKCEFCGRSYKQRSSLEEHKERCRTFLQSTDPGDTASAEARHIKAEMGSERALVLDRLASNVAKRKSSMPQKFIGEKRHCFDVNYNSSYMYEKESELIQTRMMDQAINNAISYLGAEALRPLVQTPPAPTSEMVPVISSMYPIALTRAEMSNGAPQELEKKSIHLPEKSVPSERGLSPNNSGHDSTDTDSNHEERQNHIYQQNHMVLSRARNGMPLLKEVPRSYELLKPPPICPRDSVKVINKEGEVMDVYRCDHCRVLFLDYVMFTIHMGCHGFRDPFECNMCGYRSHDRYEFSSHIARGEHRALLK
T4 sequence (Q96SW2 whole entry): as the sequence (Q96SW2 whole entry) above
T4 sequence (Q16531 whole entry partner): as the sequence (Q16531 whole entry partner) above

CK1α = molecular target: T5, CK1α (Homo sapiens, UniProt P48729+Q96SW2); assay: Western-blot assay of substrate protein degradation in hPBMCs, CK1α; assay type: cell-based; conditions: 24 hours of compound treatment
T5 construct: endogenous in cells; host or cells: hPBMCs (Milecell Biotechnologies)
T5 sequence (P48729 whole entry): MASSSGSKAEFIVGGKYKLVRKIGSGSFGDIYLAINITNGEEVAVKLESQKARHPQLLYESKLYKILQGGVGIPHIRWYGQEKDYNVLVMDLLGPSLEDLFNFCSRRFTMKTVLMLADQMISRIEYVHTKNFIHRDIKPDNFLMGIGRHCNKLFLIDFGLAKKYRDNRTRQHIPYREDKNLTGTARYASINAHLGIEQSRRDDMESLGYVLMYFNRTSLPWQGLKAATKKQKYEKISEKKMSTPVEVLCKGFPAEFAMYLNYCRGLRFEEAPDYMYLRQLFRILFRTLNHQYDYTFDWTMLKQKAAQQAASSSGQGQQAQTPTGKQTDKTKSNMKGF
T5 sequence (Q96SW2 whole entry): as the sequence (Q96SW2 whole entry) above
T5 sequence (Q16531 whole entry partner): as the sequence (Q16531 whole entry partner) above

GSPT1 = molecular target: T6, GSPT1 (Homo sapiens, UniProt P15170+Q96SW2); assay: Western-blot assay of substrate protein degradation in hPBMCs, GSPT1; assay type: cell-based; conditions: 24 hours of compound treatment
T6 construct: endogenous in cells; host or cells: hPBMCs (Milecell Biotechnologies)
T6 sequence (P15170 whole entry): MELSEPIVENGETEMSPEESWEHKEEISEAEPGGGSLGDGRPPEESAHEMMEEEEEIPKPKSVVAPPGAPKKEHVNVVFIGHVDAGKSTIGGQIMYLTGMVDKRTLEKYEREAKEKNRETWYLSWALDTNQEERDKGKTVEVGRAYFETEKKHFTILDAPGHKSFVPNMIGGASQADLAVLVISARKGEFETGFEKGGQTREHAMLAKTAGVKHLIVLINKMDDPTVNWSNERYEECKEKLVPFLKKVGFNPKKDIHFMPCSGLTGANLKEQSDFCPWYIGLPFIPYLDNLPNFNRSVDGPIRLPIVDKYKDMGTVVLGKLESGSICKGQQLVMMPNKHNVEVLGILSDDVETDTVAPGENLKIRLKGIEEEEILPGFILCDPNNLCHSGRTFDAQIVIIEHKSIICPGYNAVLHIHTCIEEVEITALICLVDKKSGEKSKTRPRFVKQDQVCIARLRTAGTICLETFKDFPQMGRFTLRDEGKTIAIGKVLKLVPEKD
T6 sequence (Q96SW2 whole entry): as the sequence (Q96SW2 whole entry) above
T6 sequence (Q16531 whole entry partner): as the sequence (Q16531 whole entry partner) above

[1] = molecular target: T7, human Cereblon WT GST-tagged protein (Homo sapiens, UniProt Q96SW2); assay: CRBN-binding affinity by HTRF (CEREBLON BINDING kit); conditions: HTRF inhibitory activity, CEREBLON BINDING kit; read-out: HTRF IC50
T7 construct: purchased CISBIO 64BDCRBNPEH
T7 sequence (Q96SW2 whole entry): as the sequence (Q96SW2 whole entry) above

[2] = tested on: Human acute T lymphocytic leukemia cells (Molt-4); assay: Tumor cell proliferation inhibition (CellTiter-Meiluncell Luminescent Cell Viability Assay), Molt-4; conditions: MOLT-4, 96 h, read-out: inhibitory activity (IC50, nM) against tumor cells proliferation, Molt 4
NCI-H1975 = assay: Tumor cell proliferation inhibition (CellTiter-Meiluncell Luminescent Cell Viability Assay), NCI-H1975; conditions: Homo sapiens, NCI-H1975, 96 h, read-out: inhibitory activity (IC50, nM) against tumor cells proliferation, H1975
[3] = tested on: Human breast cancer cells (MDA-MB-231); assay: Tumor cell proliferation inhibition (CellTiter-Meiluncell Luminescent Cell Viability Assay), MDA-MB-231; conditions: for IC50: MDA-MB-231, 96 h, read-out: inhibitory activity (IC50, nM) against tumor cells proliferation, MDA-MB-231; for inhibition at 0.01 µM: MDA-MB-231, read-out: Inhibition rate (%) at 10 nM; for inhibition at 0.5 µM: MDA-MB-231, read-out: Inhibition rate (%) at 500 nM
Jurkat = assay: Tumor cell proliferation inhibition (CellTiter-Meiluncell Luminescent Cell Viability Assay), Jurkat; conditions: Homo sapiens, read-out: inhibitory activity (IC50, nM) against tumor cells proliferation, Jurkat
[4] = compounds tested at 50 nM and 500 nM (concentration of the table not stated)
[5] = 50 nM and 500 nM tested (concentration behind the class not stated)

Structure (SMILES) | Weel substrate protein remaining % (WEE1; [4]) | IKZF 1 substrate protein remaining % (IKZF1; [4]) | IKZF2 substrate protein remaining % (IKZF2; [4]) | IKZF3 substrate protein remaining % (IKZF3; [4]) | CK1a substrate protein remaining % (CK1α; [4]) | GSPT1 substrate protein remaining % (GSPT1; [4]) | IC50 [1] | IC50 [2] | IC50 (NCI-H1975) | IC50 [3] | Weel substrate protein remaining % (WEE1; [5]) | IKZF 1 substrate protein remaining % (IKZF1; [5]) | IKZF2 substrate protein remaining % (IKZF2; [5]) | IKZF3 substrate protein remaining % (IKZF3; [5]) | CK1a substrate protein remaining % (CK1α; [5]) | GSPT1 substrate protein remaining % (GSPT1; [5]) | IC50 (Jurkat) | inhibition at 0.01 µM [3] | inhibition at 0.5 µM [3]
O=C1CCC(N2Cc3cc(CN4CCC(c5c[nH]c6ncccc56)CC4)ccc3C2=O)C(=O)N1 (stereo not shown) [GT-04603, 3-(5-((4-(1H-pyrrolo[2,3-b]pyridin-3-yl)piperidin-1-yl)methyl)-1-oxoisoindolin-2-yl)piperidine-2,6-dione] | A (0% ≤ substrate protein remaining % ≤ 80%) | A (0% ≤ substrate protein remaining % ≤ 80%) | A (0% ≤ substrate protein remaining % ≤ 80%) | A (0% ≤ substrate protein remaining % ≤ 80%) | A (0% ≤ substrate protein remaining % ≤ 80%) | A (0% ≤ substrate protein remaining % ≤ 80%) | 500 to 1000 nM | 10 to 50 nM | 100 to 500 nM | 100 to 500 nM |  |  |  |  |  |  |  |  | 
O=C1CCC(N2Cc3cc(CN4CCC(N5CCCc6cc(F)ccc65)CC4)ccc3C2=O)C(=O)N1 (stereo not shown) [GT-04691, 3-(5-((4-(6-fluoro-3,4-dihydroquinolin-1(2H)-yl)piperidin-1-yl)methyl)-1-oxoisoindolin-2-yl)piperidine-2,6-dione] | A (0% ≤ substrate protein remaining % ≤ 80%) | A (0% ≤ substrate protein remaining % ≤ 80%) | A (0% ≤ substrate protein remaining % ≤ 80%) | A (0% ≤ substrate protein remaining % ≤ 80%) | A (0% ≤ substrate protein remaining % ≤ 80%) | A (0% ≤ substrate protein remaining % ≤ 80%) | 500 to 1000 nM | 10 to 50 nM | 500 to 1000 nM | 500 to 1000 nM |  |  |  |  |  |  |  |  | 
O=C1CCC(N2Cc3cc(CN4C5CC4CN(c4cccc(Cl)c4Cl)C5)ccc3C2=O)C(=O)N1 (stereo not shown) [GT-04712, 3-(5-((3-(2,3-dichlorophenyl)-3,6-diazabicyclo[3.1.1]heptan-6-yl)methyl)-1-oxoisoindolin-2-yl)piperidine-2,6-dione] | B (80%< substrate protein remaining %≤ 100%) | B (80%< substrate protein remaining %≤ 100%) | B (80%< substrate protein remaining %≤ 100%) | A (0% ≤ substrate protein remaining % ≤ 80%) | A (0% ≤ substrate protein remaining % ≤ 80%) | A (0% ≤ substrate protein remaining % ≤ 80%) | 500 to 1000 nM | 10 to 50 nM | 100 to 500 nM | 50 to 100 nM |  |  |  |  |  |  |  |  | 
O=C1CCC(N2Cc3cc(CN4CC=C(c5c[nH]c6cc(F)ccc56)CC4)ccc3C2=O)C(=O)N1 (stereo not shown) [GT-04722, 3-(5-((4-(6-fluoro-1H-indol-3-yl)-3,6-dihydropyridin-1(2H)-yl)methyl)-1-oxoisoindolin-2-yl)piperidine-2,6-dione] | B (80%< substrate protein remaining %≤ 100%) | B (80%< substrate protein remaining %≤ 100%) | B (80%< substrate protein remaining %≤ 100%) | A (0% ≤ substrate protein remaining % ≤ 80%) | A (0% ≤ substrate protein remaining % ≤ 80%) | A (0% ≤ substrate protein remaining % ≤ 80%) | < 500 nM | 50 to 100 nM | 100 to 500 nM | 100 to 500 nM |  |  |  |  |  |  |  |  | 
Cc1nc(C2CCN(Cc3ccc4c(c3)CN(C3CCC(=O)NC3=O)C4=O)CC2)c2ccsc2n1 (stereo not shown) [GT-04726, 3-(5-((4-(2-methylthieno[2,3-d]pyrimidin-4-yl)piperidin-1-yl)methyl)-1-oxoisoindolin-2-yl)piperidine-2,6-dione] | A (0% ≤ substrate protein remaining % ≤ 80%) | A (0% ≤ substrate protein remaining % ≤ 80%) | A (0% ≤ substrate protein remaining % ≤ 80%) | A (0% ≤ substrate protein remaining % ≤ 80%) | A (0% ≤ substrate protein remaining % ≤ 80%) | A (0% ≤ substrate protein remaining % ≤ 80%) | 500 to 1000 nM | 10 to 50 nM |  |  |  |  |  |  |  |  |  |  | 
Cc1ccsc1C1=CCN(Cc2ccc3c(c2)C(=O)N(C2CCC(=O)NC2=O)C3=O)CC1 (stereo not shown) [GT-04732, 2-(2,6-dioxopiperidin-3-yl)-5-((4-(3-methylthiophen-2-yl)-3,6-dihydropyridin-1(2H)-yl)methyl)isoindoline-1,3-dione] | A (0% ≤ substrate protein remaining % ≤ 80%) | B (80%< substrate protein remaining %≤ 100%) | B (80%< substrate protein remaining %≤ 100%) | B (80%< substrate protein remaining %≤ 100%) | A (0% ≤ substrate protein remaining % ≤ 80%) | A (0% ≤ substrate protein remaining % ≤ 80%) | 500 to 1000 nM | 50 to 100 nM |  | 500 to 1000 nM |  |  |  |  |  |  |  |  | 
O=C1CCC(N2C(=O)c3ccc(CN4CCC(c5ncc6ccsc6n5)CC4)cc3C2=O)C(=O)N1 (stereo not shown) [GT-06652, 2-(2,6-dioxopiperidin-3-yl)-5-((4-(thieno[2,3-d]pyrimidin-2-yl)piperidin-1-yl)methyl)isoindoline-1,3-dione] |  |  |  |  |  |  |  |  |  |  | A (0% ≤ substrate protein remaining % ≤ 80%) | B (80%< substrate protein remaining %≤ 100%) | A (0% ≤ substrate protein remaining % ≤ 80%) | B (80%< substrate protein remaining %≤ 100%) | B (80%< substrate protein remaining %≤ 100%) | A (0% ≤ substrate protein remaining % ≤ 80%) | 100 to 500 nM |  | 
O=C1CCC(N2C(=O)c3ccc(CN4CCN(c5ncccc5Cl)CC4)cc3C2=O)C(=O)N1 (stereo not shown) [GT-07843, 5-((4-(3-chloropyridin-2-yl)piperazin-1-yl)methyl)-2-(2,6-dioxopiperidin-3-yl)isoindoline-1,3-dione] |  |  |  |  |  |  |  |  |  |  |  |  |  |  |  |  |  | 30 to 40% | 30 to 40%
O=C1CCC(N2C(=O)c3ccc(CN4CCN(c5nc(N6CCCC6)nc6c5SCC6)CC4)cc3C2=O)C(=O)N1 (stereo not shown) [GT-08004, 2-(2,6-dioxopiperidin-3-yl)-5-((4-(2-(pyrrolidin-1-yl)-6,7-dihydrothieno[3,2-d]pyrimidin-4-yl)piperazin-1-yl)methyl)isoindoline-1,3-dione] |  |  |  |  |  |  |  |  |  |  | B (80%< substrate protein remaining %≤ 100%) | A (0% ≤ substrate protein remaining % ≤ 80%) | A (0% ≤ substrate protein remaining % ≤ 80%) | A (0% ≤ substrate protein remaining % ≤ 80%) | B (80%< substrate protein remaining %≤ 100%) | A (0% ≤ substrate protein remaining % ≤ 80%) |  | 30 to 40% | 40 to 50%
O=C1CCC(N2C(=O)c3ccc(CN4CCN(c5nc(N6CCC6)nc6c5SCC6)CC4)cc3C2=O)C(=O)N1 (stereo not shown) [GT-08005, 5-((4-(2-(azetidin-1-yl)-6,7-dihydrothieno[3,2-d]pyrimidin-4-yl)piperazin-1-yl)methyl)-2-(2,6-dioxopiperidin-3-yl)isoindoline-1,3-dione] |  |  |  |  |  |  |  |  |  |  | B (80%< substrate protein remaining %≤ 100%) | A (0% ≤ substrate protein remaining % ≤ 80%) | A (0% ≤ substrate protein remaining % ≤ 80%) | A (0% ≤ substrate protein remaining % ≤ 80%) | B (80%< substrate protein remaining %≤ 100%) | B (80%< substrate protein remaining %≤ 100%) |  | 20 to 30% | 30 to 40%

— patent EP4745137A1 (Gluetacs Therapeutics (Shanghai) Co., Ltd., priority 2023, dated 2025)
